In US20240207308A1, “METHOD FOR CULTURING DENDRITIC CELLS” (NANOFAENTECH CO., LTD., priority 2021, published 2024):

What was measured:
Type in all cases: cell-based, mouse
spleen dendritic cells [1] = experiment: Flow cytometry of CD86, MHC-II, CD80, CD40 on cultured spleen dendritic cells (self-activation); settings: for increase in CD86 expression by self-activation: different concentrations up to 800 μg/mL; for increase in CD86 expression by self-activation / increase in the expression of CD86: 2×10^5/mL cells; for increase in the expression of CD86: each at 800 μg/mL, 24 hours
Description: Mouse spleen dendritic cells were obtained by adding EDTA-BSS (Balanced Salt Solution) buffer and collagenase solution (DMEM containing 100 units of collagenase type IV, medium containing low glucose) to spleens of female C57BL/6 mice and cutting it with surgical scissors, mixing the same with 6 mL of collagenase treatment solution, and incubating the mixture for 30 minutes. The separated whole spleen tissue was filtered using a 70 μm cell strainer (Falcon), followed by centrifugation at 1800 rpm for 5 minutes thus to separate the cells. Red blood cells were removed by adding red blood cell lysis buffer (Sigma-Aldrich) to the cells and washed twice with RPMI-1640 medium containing 10% fetal bovine serum (FBS). Dendritic cells were reacted with CD11c^+ antibody-bound microbeads and isolated using CD11c Microbeads Ultrapure (MACS, Milteni Biotec, USA).
In FIG. 2, in order to determine whether self-activation occurs when primary dendritic cells isolated from the spleen are cultured, dendritic cells were dispensed in a 24-well plate at 2×10^5/mL, and after culturing for 6 hours in RPMI-1640 medium at 37° C. under 5% CO2 condition, the expression levels of MHC-II, CD86, CD80 and CD40 were analyzed on the surface of dendritic cells using a flow cytometer (MACSQuant VYB flow cytometer, Miltenyi Biotec). Results measured using a flow cytometer were analyzed using FlowJo v10 (Tree Star, Ashland). The expression levels of CD86, CD80 and CD40 were shown as the percentage of cells stained with CD11c, and the expression level of MHC-II was shown as mean fluorescence intensity (MFI), which is the mean fluorescence intensity of fluorescence.
In FIG. 7, when culturing spleen dendritic cells, each of the prepared peptides was added at a concentration of 200 μg/mL and the expression level of CD86 was measured 6 hours after culture. When each peptide was used alone for treatment, the expression of CD86 was not inhibited in spleen dendritic cells. […] Compared to when the cells were treated with these three kinds of peptides, the expression was not inhibited even when the two kinds of peptides were used together for treatment. * indicates statistical significance as P<0.05 or less compared to the P1, P1-2, and P2-1 conditions.
In FIG. 9, peptides containing P1 and P2 and amino acids of these peptides as well as P3 peptide in a combination of three types were added to the spleen dendritic cell culture medium, and after culturing for 6 hours, the expression level of CD86 was measured by flow cytometry.
In FIG. 24, different concentrations of LP1, LP2 and LP3 were added to reach a concentration of 800 μg/mL, and spleen dendritic cells (2×10^5/mL) were cultured for 6 hours or 24 hours, and the CD86 expression level was measured by flow cytometry (MACSQuant VYB flow cytometer, Miltenyi Biotec). The measured results were analyzed using FlowJo v10 (Tree Star, Ashland).
In FIG. 25, when spleen primary dendritic cells were dispensed at 2×10^5/mL and cultured for 24 hours while scrambled peptides of S-LP1, S-LP2 and S-LP3 were each added at a concentration of 800 μg/mL, the increase in the expression of CD86 was not inhibited. Further, the expression of CD86 was not reduced even when the scrambled peptides S-P1, S-P2 and S-P3 were simultaneously treated at a concentration of 600 μg/mL, respectively.

[2] = system: spleen primary dendritic cells; experiment: ELISA of TNF-α / IL-12p40 secreted by cultured spleen primary dendritic cells; settings: cells 2×10^5/mL, 24 hours, without LPS
Description: In FIG. 12, spleen primary dendritic cells were dispensed at 1×10^6/mL and cultured for 24 hours, and then a concentration of TNF-α secreted from these cells in the culture medium was measured. As a result, it was confirmed that the secretion increased in a time-dependent manner. The concentration of TNF-α was measured at 450 nm using an ELISA kit (R&D systems) and a microplate analyzer (Synergy H1, Biotek). However, when dendritic cells were dispensed at 2×10^5/mL, CD86 expression was increased but TNF-α secretion was not increased (results not presented). * indicates statistical significance as P<0.05 or less compared with 3 h.
In FIG. 13, spleen primary dendritic cells were dispensed at 1×10^6/mL and cultured for 24 hours. […] Furthermore, when P4, P5 and P6 peptides were added at a concentration of 200 μg/mL, respectively, the secretion of TNF-α was not inhibited.
Therefore, it could be seen that fibronectin has a disadvantage of inhibiting the activation by stimulants although can maintain the inactivation of spleen dendritic cells. * indicates statistical significance as P<0.05 or less compared to -LPS.
In FIG. 27, an ELISA kit (R&D systems) was used to measure the concentration of TNF-α secreted into the culture medium when spleen primary dendritic cells were dispensed at 2×10^5/mL and cultured for 24 hours. The concentration was determined at 450 nm by a microplate analyzer (Synergy H1, Biotek).

spleen dendritic cells [3] = experiment: Fluorescence staining of CD86 in spleen dendritic cells, confocal microscope; settings: without LPS, linker peptides 400 μg/mL, 24 hours
Description: In FIG. 11, culturing spleen dendritic cells (2×10^5/mL) and the prepared peptides were added at a concentration of 200 μg/mL, respectively, and after 6 hours, the expression level of CD86 using a PE-conjugated anti-CD86 antibody (eBioscience) was measured through a confocal microscope after fluorescence staining. After culturing spleen primary dendritic cells for a certain period of time, intracellular CD86, F-actin and nuclear staining was implemented. Expression of actin was stained with FITC-conjugated phalloidin (eBioscience), and nuclear staining was conducted with Hoechst 33342 (Sigma-Aldrich). For this purpose, cells cultured in a 48-well plate were placed in a 4% paraformaldehyde fixing solution, and then fixed at room temperature for 20 minutes.
Then, after washing twice with phosphate buffered saline solution, it was permeabilized with 0.1% Triton X-100 (Sigma-Aldrich) solution at room temperature for 5 minutes and washed twice with phosphate buffered saline solution. In order to remove non-specific staining, after reacting with 0.2% bovine serum albumin (Sigma-Aldrich) solution at room temperature for 20 minutes, it was washed twice with phosphate buffered saline solution. After that, the anti-CD86 antibody and phalloidine were diluted in 0.2% bovine serum albumin solution at a ratio of 1:40 and reacted for 40 minutes, washed 3 times with Tris buffer, placed on a slide glass, followed by counter-staining with Hoechst 33342 solution for nuclear staining of cells. After sealing with a cover glass, the cells were observed using a confocal laser microscope (K1 nanoscope).
In FIG. 26, spleen dendritic cells (2×10^5/mL) were dispensed in a 48-well plate, and linker peptides were each added at a concentration of 400 μg/mL, followed by culturing for 24 hours. Activation of spleen dendritic cells was induced by adding 1 μg/mL of LPS to the culture medium. The cultured cells were placed in a 4% paraformaldehyde fixing solution and fixed at room temperature for 20 minutes. After fluorescence staining using PE-conjugated anti-CD86 antibody (eBioscience), it was measured with a confocal microscope (K1 Nanoscope, Korea). Intracellular actin expression was stained with FITC-conjugated phalloidin (eBioscience), and nuclear staining was conducted with Hoechst 33342 (Sigma-Aldrich). CD86 antibody and phalloidin were diluted 1:40 in 0.2% bovine serum albumin solution and used.

[4] = system: spleen T cells from Balb/c mice; experiment: Mixed lymphocyte reaction: proliferation of CFSE-stained allogeneic T cells co-cultured with spleen dendritic cells; settings: dendritic cells without peptide or fibronectin, activated with the stimulant, compared to control
Description: Since the main role of activated dendritic cells is to induce antigen-specific T-cell activation and proliferation according to the stimulatory properties, it was investigated whether self-activated dendrite cells after culturing and dendritic cells activated with LPS after culturing with addition of peptides can induce T cell proliferation by mixed lymphocyte reaction (MLR) test. The spleen dendritic cells isolated from C57B/L6 mice were self-activated for 24 hours, otherwise, when cultured with addition of peptides or fibronectin, the cells were treated with LPS and activated. Spleen T cells from Balb/c mice were isolated using a CD4^+/CD8^+ T cell isolation kit (Miltenyi Biotec, Bergisch-Gladbach, Germany) and MACS column (Miltenyi Biotec), followed by 10 μM CFSE staining (Molecular Probes; Thermo Fisher Scientific Inc., USA). The activated dendritic cells and CFSE-stained T cells were co-cultured at a ratio of 1:20 for 4 days, and the T cell proliferation level was measured as a percentage of cells with decreased CFSE. […] In FIG. 22, the amount of cytokines secreted after co-culture of spleen dendritic cells and T cells for 4 days was measured by ELISA method. […]

PHSRNGGGSRGDGGGSLDV (Linker peptide LP2)
increase in CD86 expression by self-activation (spleen dendritic cells [1]; 6 hours or 24 hours): inhibited
TNF-α secretion [2]: hardly occurred
CD86-expressing cells (spleen dendritic cells [3]): almost not observed

PHSRNGGGSGGGSRGDGGGSLDV (Linker peptide LP3)
increase in CD86 expression by self-activation (spleen dendritic cells [1]; 6 hours or 24 hours): inhibited
self-activation inhibitory effect compared among LP1, LP2 and LP3 (spleen dendritic cells [1]; up to 800 μg/mL, 6 hours or 24 hours): greatest self-activation inhibitory effect
TNF-α secretion [2]: hardly occurred
CD86-expressing cells (spleen dendritic cells [3]): almost not observed

NRPHSGGGSDRGGGGSVDL (Scrambled linker peptide S-LP2) [scrambled linker peptide, control, reference compound]
increase in the expression of CD86 (spleen dendritic cells [1]): not inhibited

polyinosinic:polycytidylic acid [poly (I:C), reference compound]
proliferation of co-cultured spleen T cells [4]: slightly increased

PHSRNGSRGDGSLDV (Linker peptide LP1)
increase in CD86 expression by self-activation (spleen dendritic cells [1]; 6 hours or 24 hours): inhibited
TNF-α secretion [2]: hardly occurred
CD86-expressing cells (spleen dendritic cells [3]): almost not observed

NRPHSGGGSGGGSDRGGGGSVDL (Scrambled linker peptide S-LP3) [scrambled linker peptide, control, reference compound]
increase in the expression of CD86 (spleen dendritic cells [1]): not inhibited

laminin
expression level of CD86 or MHC-II (self-activation) (spleen dendritic cells [1]; 200 μg/mL (laminin 200 μg/mL or higher), cultured 6 hours): self-activation was not inhibited
expression of MHC-II, CD80 and CD40 in addition to CD86 (spleen dendritic cells [1]; cultured 6 hours or 24 hours, peptides 200 μg/mL each): no effect was observed

Pro-His-Ser-Arg-Asn (PHSRN; Fibronectin motif P3) [Peptide P3]
expression level of CD86 (spleen dendritic cells [1]; treated alone at 600 μg/mL, 6 hours): no inhibitory effect

NRPHSGSDRGGSVDL (Scrambled linker peptide S-LP1) [scrambled linker peptide, control, reference compound]
increase in the expression of CD86 (spleen dendritic cells [1]): not inhibited
